We go through 20 compounds from patent US11078216B2, “Bisaryl amides as NRF2 activators” (GLAXOSMITHKLINE INTELLECTUAL PROPERTY DEVELOPMENT LIMITED, priority 2016, dated 2021).

The test has as its system NRF2 (NQO1 activity as marker for NRF2 activation), BEAS-2B cells. Put plainly: BEAS-2B NQO1 MTT Assay. To be noted: EC50 of NQO1 specific activity induction, 48 hours incubation, read-out: EC50. The format is cell-based. In short, it runs like this:
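BEAS-2B cells were exposed to compound for 48 h at 37° C, 5% CO2, then lysed. NQO1 activity was measured kinetically by MTT reduction at 570 nm over 30 minutes; EC50 came from 3-parameter fit of Delta OD/min versus log concentration.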

As usually defined, the EC50 is the concentration giving half of the maximal effect.

Structures can show the parent of a compound that is named as a salt. Where two headings read alike, the source gives them in different places.

As to `CC[C@@H]1CN(Cc2cc([C@H](CC(=O)Nc3ccc(OC)nc3)c3ccc4c(nnn4CC)c3C)ccc2C)S(=O)(=O)c2cccnc2O1` [Example 172, (S)-3-(3-(((R)-4-ethyl-1,1-dioxido-3,4-dihydro-2H-pyrido[2,3-b][1,4,5]oxathiazepin-2-yl)methyl)-4-methylphenyl)-3-(1-ethyl-4-methyl-1H-benzo[d][1,2,3]triazol-5-yl)-N-(6-methoxypyridin-3-yl)propanamide], for the setting “Homo sapiens”, the EC50 was in the range of 100 to 1000 nM.

Consider `CC[C@@H]1CN(Cc2cc([C@@H](c3ccc4c(nnn4CC)c3C)C(C)(C)NC(=O)c3cnc(OCCCOC)nc3)ccc2C)S(=O)(=O)c2ccccc2O1` [Example 160, N-((S)-1-(3-(((R)-4-Ethyl-1,1-dioxido-3,4-dihydro-2H-benzo[b][1,4,5]oxathiazepin-2-yl)methyl)-4-methylphenyl)-1-(1-ethyl-4-methyl-1H-benzo[d][1,2,3]triazol-5-yl)-2-methylpropan-2-yl)-2-(3-methoxypropoxy)pyrimidine-5-carboxamide], for which, where the note is “Homo sapiens”, the EC50 was in the range of 1 to 10 nM.

`CC[C@@H]1CN(Cc2cc([C@@H](c3ccc4c(nnn4CC)c3C)C(C)(C)C(=O)Nc3cncnc3)ccc2C)S(=O)(=O)c2cccnc2O1` [Example 117, (S)-3-(3-(((R)-4-Ethyl-1,1-dioxido-3,4-dihydro-2H-pyrido[2,3-b][1,4,5]oxathiazepin-2-yl)methyl)-4-methylphenyl)-3-(1-ethyl-4-methyl-1H-benzo[d][1,2,3]triazol-5-yl)-2,2-dimethyl-N-(pyrimidin-5-yl)propanamide]: where the note is “Homo sapiens”, the half-maximal effective concentration (EC50) lay in the range of 1 to 10 nM.

For `CC[C@@H]1CN(Cc2cc([C@@H](c3ccc4c(nnn4CC)c3C)C(C)(C)NC(=O)c3cnc(N4CCCC4)nc3)ccc2C)S(=O)(=O)c2ccccc2O1` [Example 159, N-((S)-1-(3-(((R)-4-Ethyl-1,1-dioxido-3,4-dihydro-2H-benzo[b][1,4,5]oxathiazepin-2-yl)methyl)-4-methylphenyl)-1-(1-ethyl-4-methyl-1H-benzo[d][1,2,3]triazol-5-yl)-2-methylpropan-2-yl)-2-(pyrrolidin-1-yl)pyrimidine-5-carboxamide], the half-maximal effective concentration (EC50) (Homo sapiens) lay in the range of 10 to 100 nM.

As for `CC[C@H]1Cc2ccccc2S(=O)(=O)N(Cc2cc([C@@H](c3ccc4c(nnn4CC)c3C)C(C)(C)C(=O)Nc3ncns3)ccc2C)C1` [Example 71, (S)-3-(3-(((S)-4-Ethyl-1,1-dioxido-4,5-dihydrobenzo[f][1,2]thiazepin-2(3H)-yl)methyl)-4-methylphenyl)-3-(1-ethyl-4-methyl-1H-benzo[d][1,2,3]triazol-5-yl)-2,2-dimethyl-N-(1,2,4-thiadiazol-5-yl)propanamide], the EC50 (Homo sapiens) fell in the range of 1 to 10 nM.

As for `CC[C@@H]1CN(Cc2cc([C@@H](c3ccc4c(nnn4CC)c3C)C(C)(C)C(=O)Nc3cncnc3)ccc2C)S(=O)(=O)c2ccccc2O1` [Example 91, (S)-3-(3-(((R)-4-Ethyl-1,1-dioxido-3,4-dihydro-2H-benzo[b][1,4,5]oxathiazepin-2-yl)methyl)-4-methylphenyl)-3-(1-ethyl-4-methyl-1H-benzo[d][1,2,3]triazol-5-yl)-2,2-dimethyl-N-(pyrimidin-5-yl)propanamide], for the setting “Homo sapiens”, the EC50 fell in the range of 1 to 10 nM.

Take `COc1cc(C(CC(=O)Nc2cccnc2)c2ccc(C)c(CN3C[C@@H](C)Cc4ccc(C(F)(F)F)cc4S3(=O)=O)c2)cc2nnn(C)c12` (some centres unmarked) [Example 61]: the EC50 lay within 10 to 100 nM.

As to `CC[C@@H]1CN(Cc2cc([C@@H](c3ccc4c(nnn4CC)c3C)C(C)(C)NC(=O)c3nnn[nH]3)ccc2C)S(=O)(=O)c2ccccc2O1` [Example 77, N—((S)-1-(3-(((R)-4-Ethyl-1,1-dioxido-3,4-dihydro-2H-benzo[b][1,4,5]oxathiazepin-2-yl)methyl)-4-methylphenyl)-1-(1-ethyl-4-methyl-1H-benzo[d][1,2,3]triazol-5-yl)-2-methylpropan-2-yl)-1H-tetrazole-5-carboxamide, Trifluoroacetic Acid Salt], where the note is “Homo sapiens”, the EC50 was 100 to 1000 nM.

As to `CC[C@@H]1CN(Cc2cc([C@@H](c3ccc4c(nnn4CC)c3C)C(C)(C)C(=O)N[C@@H](CC(N)=O)C(=O)O)ccc2C)S(=O)(=O)c2ccccc2O1` [Example 211, (S)-4-amino-2-((S)-3-(3-(((R)-4-ethyl-1,1-dioxido-3,4-dihydro-2H-benzo[b][1,4,5]oxathiazepin-2-yl)methyl)-4-methylphenyl)-3-(1-ethyl-4-methyl-1H-benzo[d][1,2,3]triazol-5-yl)-2,2-dimethylpropanamido)-4-oxobutanoic acid], the EC50 (Homo sapiens) is 1000 to 10000 nM.

For `CC[C@@H]1CN(Cc2cc([C@@H](c3ccc4c(nnn4CC)c3C)C(C)(C)C(=O)Nc3cncnc3)ccc2C)S(=O)(=O)c2cnccc2O1` [Example 96, (S)-3-(3-(((R)-4-Ethyl-1,1-dioxido-3,4-dihydro-2H-pyrido[4,3-b][1,4,5]oxathiazepin-2-yl)methyl)-4-methylphenyl)-3-(1-ethyl-4-methyl-1H-benzo[d][1,2,3]triazol-5-yl)-2,2-dimethyl-N-(pyrimidin-5-yl)propanamide], for the setting “Homo sapiens”, the half-maximal effective concentration (EC50) lay within 1 to 10 nM.

On to `CC[C@@H]1CN(Cc2cc([C@H](CC(=O)Nc3ccccc3)c3ccc4c(nnn4CC)c3C)ccc2C)S(=O)(=O)c2cccnc2O1` [Example 170, (S)-3-(3-(((R)-4-ethyl-1,1-dioxido-3,4-dihydro-2H-pyrido[2,3-b][1,4,5]oxathiazepin-2-yl)methyl)-4-methylphenyl)-3-(1-ethyl-4-methyl-1H-benzo[d][1,2,3]triazol-5-yl)-N-phenylpropanamide], for which the 50% effective concentration (EC50) (Homo sapiens) lay within 100 to 1000 nM.

Take `CC[C@H]1Cc2ccccc2S(=O)(=O)N(Cc2cc([C@H](CC(=O)NCCNC)c3ccc4c(nnn4CC)c3F)ccc2C)C1` [Example 81, (S)-3-(3-(((S)-4-Ethyl-1,1-dioxido-4,5-dihydrobenzo[f][1,2]thiazepin-2(3H)-yl)methyl)-4-methylphenyl)-3-(1-ethyl-4-fluoro-1H-benzo[d][1,2,3]triazol-5-yl)-N-(2-(methylamino)ethyl)propanamide]: the EC50 (Homo sapiens) was in the range of 10 to 100 nM.

As for `CC[C@@H]1CN(Cc2cc([C@@H](c3ccc4c(nnn4CC)c3C)C(C)(C)NC(=O)c3ccon3)ccc2C)S(=O)(=O)c2ccccc2O1` [Example 153, N-((S)-1-(3-(((R)-4-Ethyl-1,1-dioxido-3,4-dihydro-2H-benzo[b][1,4,5]oxathiazepin-2-yl)methyl)-4-methylphenyl)-1-(1-ethyl-4-methyl-1H-benzo[d][1,2,3]triazol-5-yl)-2-methylpropan-2-yl)isoxazole-3-carboxamide], the concentration giving a half-maximal response (EC50) (Homo sapiens) lay within 10 to 100 nM.

Take `CC[C@@H]1CN(Cc2cc([C@@H](c3ccc4c(nnn4CC)c3C)C(C)(C)C(=O)NCCNC)ccc2C)S(=O)(=O)c2cccnc2O1` [Example 102, (S)-3-(3-(((R)-4-Ethyl-1,1-dioxido-3,4-dihydro-2H-pyrido[2,3-b][1,4,5]oxathiazepin-2-yl)methyl)-4-methylphenyl)-3-(1-ethyl-4-methyl-1H-benzo[d][1,2,3]triazol-5-yl)-2,2-dimethyl-N-(2-(methylamino)ethyl) propanamide]: the EC50 (Homo sapiens) is 10 to 100 nM.

With `CC[C@@H]1CN(Cc2cc([C@@H](c3ccc4c(nnn4CC)c3C)C(C)(C)C(=O)NC(CC(=O)O)C(=O)O)ccc2C)S(=O)(=O)c2ccccc2O1` (stereo partly drawn) [Example 202, 2-((S)-3-(3-(((R)-4-ethyl-1,1-dioxido-3,4-dihydro-2H-benzo[b][1,4,5]oxathiazepin-2-yl)methyl)-4-methylphenyl)-3-(1-ethyl-4-methyl-1H-benzo[d][1,2,3]triazol-5-yl)-2,2-dimethylpropanamido)succinic acid], the EC50 (Homo sapiens) lay in the range of 1 to 10 nM.

On to `CC[C@@H]1CN(Cc2cc([C@H](c3ccc4c(nnn4CC)c3C)C(C)(C)C(=O)Nc3cccnc3)ccc2C)S(=O)(=O)c2cccnc2O1` [Example 116, (R)-3-(3-(((R)-4-Ethyl-1,1-dioxido-3,4-dihydro-2H-pyrido[2,3-b][1,4,5]oxathiazepin-2-yl)methyl)-4-methylphenyl)-3-(1-ethyl-4-methyl-1H-benzo[d][1,2,3]triazol-5-yl)-2,2-dimethyl-N-(pyridin-3-yl)propanamide], for which the EC50 (Homo sapiens) was in the range of 10 to 100 nM.

Regarding `CC[C@@H]1CN(Cc2cc([C@@H](c3ccc4c(nnn4CC)c3C)C(C)(C)NC(=O)c3ccns3)ccc2C)S(=O)(=O)c2ccccc2O1` [Example 138, N-((S)-1-(3-(((R)-4-Ethyl-1,1-dioxido-3,4-dihydro-2H-benzo[b][1,4,5]oxathiazepin-2-yl)methyl)-4-methylphenyl)-1-(1-ethyl-4-methyl-1H-benzo[d][1,2,3]triazol-5-yl)-2-methylpropan-2-yl)isothiazole-5-carboxamide], the EC50 (Homo sapiens) was 10 to 100 nM.

Consider `CCCn1cc(CO[C@H](c2ccc(C)c(CN3C[C@@H](CC)Oc4ccccc4S3(=O)=O)c2)C(C)(C)C(=O)Nc2cccnc2)nn1` [Example 55, (R)-3-(3-(((R)-4-Ethyl-1,1-dioxido-3,4-dihydro-2H-benzo[b][1,4,5]oxathiazepin-2-yl)methyl)-4-methylphenyl)-2,2-dimethyl-3-((1-propyl-1H-1,2,3-triazol-4-yl)methoxy)-N-(pyridin-3-yl)propanamide], for which the EC50 (Homo sapiens) was in the range of 100 to 1000 nM.

For `CC[C@@H]1CN(Cc2cc([C@H](CC(=O)Nc3cncc(OC)c3)c3ccc4c(nnn4CC)c3C)ccc2C)S(=O)(=O)c2cccnc2O1` [Example 13, (S)-3-(3-(((R)-4-Ethyl-1,1-dioxido-3,4-dihydro-2H-pyrido[2,3-b][1,4,5]oxathiazepin-2-yl)methyl)-4-methylphenyl)-3-(1-ethyl-4-methyl-1H-benzo[d][1,2,3]triazol-5-yl)-N-(5-methoxypyridin-3-yl)propanamide], where the note is “Homo sapiens”, the EC50 is 10 to 100 nM.

For `CCn1nnc2c(C)c([C@H](c3ccc(C)c(CN4C[C@@H](C)Cc5ccc(C(F)(F)F)cc5S4(=O)=O)c3)C(C)(C)C(=O)Nc3cccnc3)cc(OC)c21` [Example 63, (S)-3-(1-Ethyl-7-methoxy-4-methyl-1H-benzo[d][1,2,3]triazol-5-yl)-2,2-dimethyl-3-(4-methyl-3-(((S)-4-methyl-1,1-dioxido-8-(trifluoromethyl)-4,5-dihydrobenzo[f][1,2]thiazepin-2(3H)-yl)methyl)phenyl)-N-(pyridin-3-yl)propanamide], under “Homo sapiens”, the EC50 fell in the range of 1 to 10 nM.
